Where a name gives a salt, the structure may show the parent alone. Read-outs that look alike come from different tables or passages of the source.
Tests used:
mGluR5 receptor = mGluR5 receptor (Sus scrofa, UniProt I3LUI7); assay: Affinity for the mGluR5 receptor: inhibition of 3[H]-MPEP binding in pig brain homogenate; details: for IC50: 3[H]-MPEP binding; for inhibition at 10 µM: 10 μM compound, 5 nM 3[H]-MPEP, read-out: mGluR5 receptor inhibition of ^3[H]-MPEP binding [10 μM] in % at a concentration of the example compounds of 10 μM
mGluR5 receptor, sequence (I3LUI7 19-1212): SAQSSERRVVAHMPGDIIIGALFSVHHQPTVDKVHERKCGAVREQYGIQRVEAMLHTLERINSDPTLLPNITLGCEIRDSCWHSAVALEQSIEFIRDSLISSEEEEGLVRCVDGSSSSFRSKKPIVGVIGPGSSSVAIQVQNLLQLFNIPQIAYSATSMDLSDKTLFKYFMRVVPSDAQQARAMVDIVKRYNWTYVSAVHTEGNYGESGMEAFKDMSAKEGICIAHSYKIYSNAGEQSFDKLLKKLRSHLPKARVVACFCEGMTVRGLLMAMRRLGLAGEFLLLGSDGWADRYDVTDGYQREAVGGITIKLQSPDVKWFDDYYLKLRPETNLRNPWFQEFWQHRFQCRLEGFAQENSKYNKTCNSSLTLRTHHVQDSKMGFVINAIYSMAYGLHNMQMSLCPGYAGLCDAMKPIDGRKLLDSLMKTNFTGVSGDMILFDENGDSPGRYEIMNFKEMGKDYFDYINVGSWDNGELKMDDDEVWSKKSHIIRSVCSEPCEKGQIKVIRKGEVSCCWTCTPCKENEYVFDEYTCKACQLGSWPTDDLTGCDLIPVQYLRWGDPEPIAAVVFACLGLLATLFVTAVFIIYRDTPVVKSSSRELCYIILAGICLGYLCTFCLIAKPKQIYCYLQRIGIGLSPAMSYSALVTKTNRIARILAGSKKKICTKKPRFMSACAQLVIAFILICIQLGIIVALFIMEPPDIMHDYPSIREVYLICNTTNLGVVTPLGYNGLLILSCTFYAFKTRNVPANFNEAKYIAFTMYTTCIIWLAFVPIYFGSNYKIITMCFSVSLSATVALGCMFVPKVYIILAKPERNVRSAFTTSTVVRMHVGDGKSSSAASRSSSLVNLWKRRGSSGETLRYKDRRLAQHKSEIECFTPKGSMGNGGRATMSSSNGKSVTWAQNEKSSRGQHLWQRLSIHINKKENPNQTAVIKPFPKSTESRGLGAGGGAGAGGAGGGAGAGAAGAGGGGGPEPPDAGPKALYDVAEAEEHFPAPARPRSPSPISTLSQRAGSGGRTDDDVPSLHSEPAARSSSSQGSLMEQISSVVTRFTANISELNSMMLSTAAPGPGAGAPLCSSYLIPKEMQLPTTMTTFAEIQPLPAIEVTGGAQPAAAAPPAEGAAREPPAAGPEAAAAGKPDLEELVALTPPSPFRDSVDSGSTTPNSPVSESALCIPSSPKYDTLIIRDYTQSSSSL
Procedure, shortened: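 Pig brain membranes (450 μg protein; hemispheres without medulla, cerebellum and pons) in 30 mM Hepes pH 8.0 were incubated 60 min at room temperature with 5 nM [3H]-MPEP and compound at 10 μM. Bound radioactivity was filtered and counted. Nonspecific binding was defined with 10 μM MPEP.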

Mouse = assay: Formaldehyde test in mice; type: in vivo
Rat = assay: Formaldehyde test (rat), phase 2; type: in vivo
[1] = ip, read-out: ED50 value, Mouse i.p.
[2] = ip, read-out: ED50 value, Rat i.p.
[3] = po, read-out: ED50 value, Rat p.o.

SMILES | IC50 (mGluR5 receptor) [nM] | also measured
CC(C)(C)Nc1c(-c2ccc(C#Cc3ccccn3)s2)nc2cnccn12.Cl [Example 91, N-tert-butyl-2-(5-(pyridin-2-ylethynyl)thiophen-2-yl)imidazo[1,2-a]pyrazin-3-amine hydrochloride] | 5.4 | ED50 (Mouse; [1]): 1.2 mg/kg; ED50 (Mouse; po, read-out: ED50 value, Mouse p.o.): 2.3 mg/kg; ED50 (Rat; [2]): 4.7 mg/kg; ED50 (Rat; [3]): 7.3 mg/kg
CC(C)(C)Nc1c(-c2ccc(C#Cc3cccs3)s2)nc2cnccn12.Cl [Example 110, N-tert-butyl-2-(5-(thiophen-2-ylethynyl)thiophen-2-yl)imidazo[1,2-a]pyrazin-3-amine hydrochloride] | 49 | % inhibition, Rat p.o. (Rat; p.o., at 21.5 mg/kg): 61% at 21.5
CC(C)(C)Nc1c(-c2ccc(C#Cc3ccccn3)cc2)nc2cnccn12 [Example 116, N-tert-butyl-2-(4-(pyridin-2-ylethynyl)phenyl)imidazo[1,2-a]pyrazin-3-amine] | 76 | ED50 (Mouse; [1]): 15.2 mg/kg
CC(C)(C)Nc1c(-c2ccc(C#Cc3ccncc3)s2)nc2cnccn12.Cl [Example 127, N-tert-butyl-2-(5-(pyridin-4-ylethynyl)thiophen-2-yl)imidazo[1,2-a]pyrazin-3-amine hydrochloride] | 8.4 | ED50 (Mouse; [1]): 7.7 mg/kg; ED50 (Rat; [2]): 2.2 mg/kg; ED50 (Rat; [3]): 5.9 mg/kg
Clc1ccc2nc(-c3ccc(C#Cc4ccccn4)cc3)c(NC3CCCCC3)n2c1 [Example 315, 6-chloro-N-cyclohexyl-2-(4-(pyridin-2-ylethynyl)phenyl)imidazo[1,2-a]pyridin-3-amine] | – | inhibition at 10 µM (mGluR5 receptor): 75%
CC(C)(C)Nc1c(-c2ccc(C#Cc3ccccn3)o2)nc2ccc(Cl)cn12 [Example 316, N-tert-butyl-6-chloro-2-(5-(pyridin-2-ylethynyl)furan-2-yl)imidazo[1,2-a]pyridin-3-amine] | – | inhibition at 10 µM (mGluR5 receptor): 55%
Clc1ccc2nc(-c3ccc(C#Cc4ccccn4)o3)c(NC3CCCCC3)n2c1 [Example 317, 6-chloro-N-cyclohexyl-2-(5-(pyridin-2-ylethynyl)furan-2-yl)imidazo[1,2-a]pyridin-3-amine] | – | inhibition at 10 µM (mGluR5 receptor): 58%
CC(C)(C)CC(C)(C)Nc1c(-c2ccc(C#Cc3ccccn3)o2)nc2ccc(Cl)cn12 [Example 318, 6-chloro-2-(5-(pyridin-2-ylethynyl)furan-2-yl)-N-(2,4,4-trimethylpentan-2-yl)imidazo[1,2-a]pyridin-3-amine] | – | inhibition at 10 µM (mGluR5 receptor): 43%
Cc1cccc(C#Cc2cccc(-c3nc4ccc(Cl)cn4c3NC3CCCC3)c2)n1 [Example 319, 6-chloro-N-cyclopentyl-2-(3-((6-methylpyridin-2-yl)ethynyl)phenyl)imidazo[1,2-a]pyridin-3-amine] | – | inhibition at 10 µM (mGluR5 receptor): 81%
Cc1cccc(C#Cc2cccc(-c3nc4ccc(Cl)cn4c3NC(C)(C)C)c2)n1 [Example 320, N-tert-butyl-6-chloro-2-(3-((6-methylpyridin-2-yl)ethynyl)phenyl)imidazo[1,2-a]pyridin-3-amine] | – | inhibition at 10 µM (mGluR5 receptor): 77%
CNc1c(-c2ccc(C#Cc3ccccn3)s2)nc2cnccn12 [Example 322, N-methyl-2-(5-(pyridin-2-ylethynyl)thiophen-2-yl)imidazo[1,2-a]pyrazin-3-amine] | 120 | –
CC(C)(C)CC(C)(C)Nc1c(-c2ccc(C#Cc3ccccn3)s2)nc2ccccn12 [Example 324, [2-(5-pyridin-2-ylethynyl-thiophen-2-yl)-imidazo[1,2-a]pyridin-3-yl]-(1,1,3,3-tetramethyl-butyl)-amine] | 59 | –
CC(C)(C)Nc1c(-c2ccc(C#Cc3ncccn3)s2)nc2ccccn12 [Example 325, tert-butyl-[2-(5-pyrimidin-2-ylethynyl-thiophen-2-yl)-imidazo[1,2-a]pyridin-3-yl]-amine hydrochloride] | 13 | –
CC(C)(C)Nc1c(-c2ccc(C#Cc3ncccc3N)s2)nc2ccccn12 [Example 326, {2-[5-(3-amino-pyridin-2-ylethynyl)-thiophen-2-yl]-imidazo[1,2-a]pyridin-3-yl}-tert-butyl-amine] | 39 | –
CC(C)(C)Nc1c(-c2ccc(C#Cc3nccs3)s2)nc2ccccn12 [Example 332, tert-butyl-[2-(5-thiazol-2-ylethynyl-thiophen-2-yl)-imidazo[1,2-a]pyridin-3-yl]-amine hydrochloride] | 14 | –
CC(C)(C)Nc1c(-c2ccc(C#Cc3cccc(OC(F)(F)F)c3)s2)nc2cnccn12 [Example 333, tert-butyl-{2-[5-(3-trifluoromethoxy-phenylethynyl)-thiophen-2-yl]-imidazo[1,2-a]pyrazin-3-yl}-amine] | 420 | –

SMILES | IC50 (mGluR5 receptor) [nM] | also measured
CC(C)(C)Nc1c(-c2ccc(C#Cc3cccc(C4OCCO4)c3)s2)nc2ccccn12 [Example 334, tert-butyl-{2-[5-(3-[1,3]dioxolan-2-yl-phenylethynyl)-thiophen-2-yl]-imidazo[1,2-a]pyridin-3-yl}-amine] | 10000 | –
CC(C)(C)Nc1c(-c2ccc(C#Cc3ncccc3F)s2)nc2ccccn12 [Example 336, tert-butyl-{2-[5-(3-fluoro-pyridin-2-ylethynyl)-thiophen-2-yl]-imidazo[1,2-a]pyridin-3-yl}-amine hydrochloride] | 6.1 | –
Cn1cncc1C#Cc1ccc(-c2nc3ccccn3c2NC(C)(C)C)s1 [Example 337, tert-butyl-{2-[5-(3-methyl-3H-imidazol-4-ylethynyl)-thiophen-2-yl]-imidazo[1,2-a]pyridin-3-yl}-amine hydrochloride] | 6260 | –
CC(C)(C)Nc1c(-c2ccc(C#Cc3ccc(Cl)s3)s2)nc2ccccn12 [Example 338, tert-butyl-{2-[5-(5-chloro-thiophen-2-ylethynyl)-thiophen-2-yl]-imidazo[1,2-a]pyridin-3-yl}-amine hydrochloride] | – | inhibition at 10 µM (mGluR5 receptor): 52%
Cc1ccc(C#Cc2ccc(-c3nc4ccccn4c3NC(C)(C)C)s2)nc1 [Example 339, tert-butyl-{2-[5-(5-methyl-pyridin-2-ylethynyl)-thiophen-2-yl]-imidazo[1,2-a]pyridin-3-yl}-amine hydrochloride] | 320 | –
CC(=O)c1cccc(C#Cc2ccc(-c3nc4ccccn4c3NC(C)(C)C)s2)c1 [Example 340, 1-{3-[5-(3-tert-butylamino-imidazo[1,2-a]pyridin-2-yl)-thiophen-2-ylethynyl]-phenyl}-ethanone hydrochloride] | 620 | –
CC(C)(C)Nc1c(-c2ccc(C#Cc3cccc(CO)c3)s2)nc2ccccn12 [Example 341, {3-[5-(3-tert-butylamino-imidazo[1,2-a]pyridin-2-yl)-thiophen-2-ylethynyl]-phenyl}-methanol hydrochloride] | 240 | –
COc1cccnc1C#Cc1ccc(-c2nc3ccccn3c2NC(C)(C)C)s1 [Example 342, N-tert-butyl-2-(5-((3-methoxypyridin-2-yl)ethynyl)thiophen-2-yl)imidazo[1,2-a]pyridin-3-amine] | 1360 | –
CC(C)(C)Nc1c(-c2ccc(C#Cc3cccs3)s2)nc2ccccn12 [Example 343, N-tert-butyl-2-(5-(thiophen-2-ylethynyl)thiophen-2-yl)imidazo[1,2-a]pyridin-3-amine hydrochloride] | 93 | –
CC(C)(C)Nc1c(-c2ccc(C#Cc3ccc(F)c(C#N)c3)s2)nc2ccccn12 [Example 344, 5-((5-(3-(tert-butylamino)imidazo[1,2-a]pyridin-2-yl)thiophen-2-yl)ethynyl)-2-fluorobenzonitrile hydrochloride] | 170 | –
COCc1cccc(C#Cc2ccc(-c3nc4ccccn4c3NC(C)(C)C)s2)c1 [Example 346, N-tert-butyl-2-(5-((3-(methoxymethyl)phenyl)ethynyl)thiophen-2-yl)imidazo[1,2-a]pyridin-3-amine] | 670 | –
CC(C)(C)Nc1c(-c2ccc(C#Cc3cccc(N)c3)s2)nc2ccccn12 [Example 347, 2-(5-((3-aminophenyl)ethynyl)thiophen-2-yl)-N-tert-butylimidazo[1,2-a]pyridin-3-amine hydrochloride] | 920 | –
Cc1cc(C#Cc2ccc(-c3nc4ccccn4c3NC(C)(C)C)s2)ccc1F [Example 348, N-tert-butyl-2-(5-((4-fluoro-3-methylphenyl)ethynyl)thiophen-2-yl)imidazo[1,2-a]pyridin-3-amine hydrochloride] | – | inhibition at 10 µM (mGluR5 receptor): 44%
CC(C)(C)Nc1c(-c2ccc(C#Cc3cc(F)cc(F)c3)s2)nc2ccccn12 [Example 349, N-tert-butyl-2-(5-((3,5-difluorophenyl)ethynyl)thiophen-2-yl)imidazo[1,2-a]pyridin-3-amine] | – | inhibition at 10 µM (mGluR5 receptor): 39%
CC(C)(C)Nc1c(-c2ccc(C#Cc3ccsc3)s2)nc2ccccn12 [Example 350, N-tert-butyl-2-(5-(thiophen-3-ylethynyl)thiophen-2-yl)imidazo[1,2-a]pyridin-3-amine hydrochloride] | 570 | –
Cc1cccnc1C#Cc1ccc(-c2nc3ccccn3c2NC(C)(C)C)s1 [Example 351, N-tert-butyl-2-(5-((3-methylpyridin-2-yl)ethynyl)thiophen-2-yl)imidazo[1,2-a]pyridin-3-amine hydrochloride] | 230 | –
